In general, GI50 refers to the concentration giving 50% growth inhibition.

Holding throughout (assay): MTT assay
One assay relates to MCF-7. Format: cell-based. The note with it: Homo sapiens, MCF7; Parental cell line MCF-7, MTT, 72 h.
In another assay the test system is DU-145. The format is cell-based. The settings on record: Homo sapiens; Parental cell line DU-145, MTT, 72 h.
The next assay has as its system RC0.1. The note with it: Homo sapiens, 72 h, read-out: GI50 ± SD.

The structures appear in SMILES notation.

In the case of `COc1cccc2c1C(=O)c1c(O)c3c(c(O)c1C2=O)C[C@@](O)(C(=O)CO)C[C@@H]3O[C@H]1C[C@H](N)[C@H](O)[C@H](C)O1` [DOX, doxorubicin, reference compound], the GI50 in the assay with MCF-7 was found to be 150 ± 3 nM. `CC[C@@]1(O)C(=O)OCc2c1cc1n(c2=O)Cc2cc3ccccc3nc2-1` [CPT, Camptothecin, reference compound]: the results for the GI50 with DU-145 and in the assay with RC0.1 were 19 ± 9 nM and 7530 ± 1880 nM, respectively.
